According to PubChem BioAssay (NCI):
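These data come from cells grown in 96-well plates and exposed to compound for 48 hours at five concentrations. TGI denotes the concentration required for complete inhibition of growth.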

Columns and labels:
Test in all cases: growth of human tumour cells (NCI), 48 h
NCI-H226 lung = system: NCI-H226 lung
EKVX NSCLC = system: EKVX NSCLC
KM12 colon = system: KM12 colon
UACC-62 melanoma = system: UACC-62 melanoma
OVCAR-5 ovarian = system: OVCAR-5 ovarian
OVCAR-4 ovarian = system: OVCAR-4 ovarian
MALME-3M melanoma = system: MALME-3M melanoma
NCI/ADR-RES ovarian = system: NCI/ADR-RES ovarian
T-47D breast = system: T-47D breast
786-0 renal = system: 786-0 renal
OVCAR-8 ovarian = system: OVCAR-8 ovarian
OVCAR-3 ovarian = system: OVCAR-3 ovarian
A498 renal = system: A498 renal
NCI-H522 lung = system: NCI-H522 lung
SK-MEL-5 melanoma = system: SK-MEL-5 melanoma
SF-539 CNS = system: SF-539 CNS
A549 NSCLC = system: A549 NSCLC
MCF7 breast = system: MCF7 breast
SR leukemia = system: SR leukemia
UO-31 renal = system: UO-31 renal
SK-OV-3 ovarian = system: SK-OV-3 ovarian
SK-MEL-2 melanoma = system: SK-MEL-2 melanoma
U251 CNS = system: U251 CNS
IGROV1 ovarian = system: IGROV1 ovarian
MDA-N = system: MDA-N
RPMI-8226 leukemia = system: RPMI-8226 leukemia
CAKI-1 renal = system: CAKI-1 renal
RXF 393 renal = system: RXF 393 renal
HCT-116 colon = system: HCT-116 colon
UACC-257 melanoma = system: UACC-257 melanoma
SF-295 CNS = system: SF-295 CNS
MOLT-4 leukemia = system: MOLT-4 leukemia
HCT-15 colon = system: HCT-15 colon
COLO 205 colon = system: COLO 205 colon
SN12C renal = system: SN12C renal
CCRF-CEM leukemia = system: CCRF-CEM leukemia
DU-145 prostate = system: DU-145 prostate
NCI-H460 lung = system: NCI-H460 lung
HCC-2998 colon = system: HCC-2998 colon
SNB-19 CNS = system: SNB-19 CNS
SNB-75 CNS = system: SNB-75 CNS
SF-268 CNS = system: SF-268 CNS
HOP-62 NSCLC = system: HOP-62 NSCLC
MDA-MB-231 breast = system: MDA-MB-231 breast
M14 melanoma = system: M14 melanoma
BT-549 breast = system: BT-549 breast
TK-10 renal = system: TK-10 renal
PC-3 prostate = system: PC-3 prostate
ACHN renal = system: ACHN renal
HS 578T breast = system: HS 578T breast
NCI-H23 lung = system: NCI-H23 lung
HT29 colon = system: HT29 colon
HL-60(TB) leukemia = system: HL-60(TB) leukemia
K-562 leukemia = system: K-562 leukemia
MDA-MB-435 = system: MDA-MB-435
HOP-92 NSCLC = system: HOP-92 NSCLC
SW-620 colon = system: SW-620 colon
LOX IMVI melanoma = system: LOX IMVI melanoma
SK-MEL-28 melanoma = system: SK-MEL-28 melanoma

SMILES: Cc1cc(N(CCC#N)CCC#N)ccc1/C(N=Nc1ccccc1)=N\NC(=O)c1ccccc1
- TGI (NCI-H226 lung): > 100 µM
- TGI (EKVX NSCLC): > 100 µM
- TGI (KM12 colon): > 100 µM
- TGI (UACC-62 melanoma): 45.5 µM
- TGI (OVCAR-5 ovarian): > 100 µM
- TGI (OVCAR-4 ovarian): > 100 µM
- TGI (MALME-3M melanoma): > 100 µM
- TGI (NCI/ADR-RES ovarian): 75.5 µM
- TGI (T-47D breast): 49 µM
- TGI (786-0 renal): 76.6 µM
- TGI (OVCAR-8 ovarian): 90.7 µM
- TGI (OVCAR-3 ovarian): > 100 µM
- TGI (A498 renal): 93.7 µM
- TGI (NCI-H522 lung): 35.3 µM
- TGI (SK-MEL-5 melanoma): > 100 µM
- TGI (SF-539 CNS): 54.1 µM
- TGI (A549 NSCLC): > 100 µM
- TGI (MCF7 breast): > 100 µM
- TGI (SR leukemia): 71.6 µM
- TGI (UO-31 renal): 65.1 µM
- TGI (SK-OV-3 ovarian): > 100 µM
- TGI (SK-MEL-2 melanoma): > 100 µM
- TGI (U251 CNS): > 100 µM
- TGI (IGROV1 ovarian): > 100 µM
- TGI (MDA-N): > 100 µM
- TGI (RPMI-8226 leukemia): > 100 µM
- TGI (CAKI-1 renal): 72.6 µM
- TGI (RXF 393 renal): > 100 µM
- TGI (HCT-116 colon): > 100 µM
- TGI (UACC-257 melanoma): > 100 µM
- TGI (SF-295 CNS): > 100 µM
- TGI (MOLT-4 leukemia): 64.5 µM
- TGI (HCT-15 colon): 48 µM
- TGI (COLO 205 colon): 53.6 µM
- TGI (SN12C renal): > 100 µM
- TGI (CCRF-CEM leukemia): 61.7 µM
- TGI (DU-145 prostate): > 100 µM
- TGI (NCI-H460 lung): 91 µM
- TGI (HCC-2998 colon): > 100 µM
- TGI (SNB-19 CNS): > 100 µM
- TGI (SNB-75 CNS): > 100 µM
- TGI (SF-268 CNS): > 100 µM
- TGI (HOP-62 NSCLC): > 100 µM
- TGI (MDA-MB-231 breast): > 100 µM
- TGI (M14 melanoma): > 100 µM
- TGI (BT-549 breast): 77.4 µM
- TGI (TK-10 renal): 41 µM
- TGI (PC-3 prostate): > 100 µM
- TGI (ACHN renal): 41.3 µM
- TGI (HS 578T breast): 75.8 µM
- TGI (NCI-H23 lung): > 100 µM
- TGI (HT29 colon): 35.5 µM
- TGI (HL-60(TB) leukemia): > 100 µM
- TGI (K-562 leukemia): 44.7 µM
- TGI (MDA-MB-435): > 100 µM

SMILES: O=C(N/N=C/C=C/c1ccc([N+](=O)[O-])o1)c1ccc(Br)s1
- TGI (NCI-H226 lung): 47.3 µM
- TGI (HOP-92 NSCLC): 25.7 µM
- TGI (EKVX NSCLC): 95.9 µM
- TGI (KM12 colon): 40.5 µM
- TGI (UACC-62 melanoma): 49.5 µM
- TGI (OVCAR-5 ovarian): 59.7 µM
- TGI (OVCAR-4 ovarian): 40.2 µM
- TGI (SW-620 colon): 71.6 µM
- TGI (MALME-3M melanoma): 37.9 µM
- TGI (NCI/ADR-RES ovarian): 57.4 µM
- TGI (T-47D breast): 65.5 µM
- TGI (786-0 renal): 47.5 µM
- TGI (OVCAR-8 ovarian): 46.7 µM
- TGI (OVCAR-3 ovarian): 41.7 µM
- TGI (A498 renal): > 100 µM
- TGI (LOX IMVI melanoma): 60.7 µM
- TGI (SK-MEL-5 melanoma): 46.1 µM
- TGI (SF-539 CNS): 74.5 µM
- TGI (A549 NSCLC): > 100 µM
- TGI (MCF7 breast): > 100 µM
- TGI (UO-31 renal): 48.9 µM
- TGI (SK-OV-3 ovarian): > 100 µM
- TGI (SK-MEL-2 melanoma): 56.3 µM
- TGI (U251 CNS): > 100 µM
- TGI (IGROV1 ovarian): 16.4 µM
- TGI (MDA-N): 56.7 µM
- TGI (RPMI-8226 leukemia): 23.4 µM
- TGI (CAKI-1 renal): 66.2 µM
- TGI (RXF 393 renal): 30.9 µM
- TGI (HCT-116 colon): 13.3 µM
- TGI (SF-295 CNS): > 100 µM
- TGI (MOLT-4 leukemia): > 100 µM
- TGI (HCT-15 colon): 35.7 µM
- TGI (COLO 205 colon): 33.3 µM
- TGI (SN12C renal): 70.5 µM
- TGI (CCRF-CEM leukemia): > 100 µM
- TGI (DU-145 prostate): > 100 µM
- TGI (NCI-H460 lung): > 100 µM
- TGI (SNB-19 CNS): 78.9 µM
- TGI (SNB-75 CNS): > 100 µM
- TGI (SF-268 CNS): 98.4 µM
- TGI (HOP-62 NSCLC): > 100 µM
- TGI (MDA-MB-231 breast): 64.9 µM
- TGI (M14 melanoma): 42.1 µM
- TGI (BT-549 breast): 51.8 µM
- TGI (TK-10 renal): 46.5 µM
- TGI (PC-3 prostate): 49.7 µM
- TGI (ACHN renal): 38.7 µM
- TGI (SK-MEL-28 melanoma): 52.3 µM
- TGI (HS 578T breast): 31.7 µM
- TGI (NCI-H23 lung): 33.5 µM
- TGI (HT29 colon): 34.2 µM
- TGI (HL-60(TB) leukemia): 87.2 µM
- TGI (K-562 leukemia): > 100 µM
- TGI (MDA-MB-435): 83.6 µM
